# Biological target: T1, Calpain I (Homo sapiens, UniProt P07384)
# T1 construct: made in house
# T1 sequence (P07384 1-714): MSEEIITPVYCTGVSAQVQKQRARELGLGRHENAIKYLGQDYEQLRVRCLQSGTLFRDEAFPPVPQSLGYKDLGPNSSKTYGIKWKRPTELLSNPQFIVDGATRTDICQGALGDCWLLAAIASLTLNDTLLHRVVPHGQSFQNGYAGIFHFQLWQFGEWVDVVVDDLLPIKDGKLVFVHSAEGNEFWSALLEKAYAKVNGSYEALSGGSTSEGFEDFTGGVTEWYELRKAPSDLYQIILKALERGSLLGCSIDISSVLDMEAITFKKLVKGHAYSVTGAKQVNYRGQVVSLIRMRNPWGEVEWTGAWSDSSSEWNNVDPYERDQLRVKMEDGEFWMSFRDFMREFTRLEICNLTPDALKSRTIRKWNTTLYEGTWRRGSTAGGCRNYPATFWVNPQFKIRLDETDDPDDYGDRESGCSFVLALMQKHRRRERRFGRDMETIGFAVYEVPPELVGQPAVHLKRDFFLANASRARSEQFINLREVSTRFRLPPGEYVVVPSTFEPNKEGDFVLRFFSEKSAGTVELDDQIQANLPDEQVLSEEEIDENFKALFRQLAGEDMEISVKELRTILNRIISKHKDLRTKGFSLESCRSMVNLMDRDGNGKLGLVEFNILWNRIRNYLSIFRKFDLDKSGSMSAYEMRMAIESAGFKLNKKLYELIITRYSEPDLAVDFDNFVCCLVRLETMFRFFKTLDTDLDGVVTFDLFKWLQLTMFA
# T1 sequence (P04632 1-268 partner): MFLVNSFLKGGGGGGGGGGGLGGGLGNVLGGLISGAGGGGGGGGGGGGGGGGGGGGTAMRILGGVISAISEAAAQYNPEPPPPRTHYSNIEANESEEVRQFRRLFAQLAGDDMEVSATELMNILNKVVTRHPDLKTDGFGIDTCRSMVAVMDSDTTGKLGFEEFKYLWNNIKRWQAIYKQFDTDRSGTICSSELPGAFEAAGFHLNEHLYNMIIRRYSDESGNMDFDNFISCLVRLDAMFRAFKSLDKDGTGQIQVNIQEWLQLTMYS
# Test: Inhibition of calpain I activity (Succ-Leu-Tyr-MNA substrate hydrolysis, fluorescence)
# Assay type: biochemical
# Conditions: Table III; calpain I, 0.2 mM Succ-Leu-Tyr-MNA, pH 7.5; * mixture of diastereomers, a,b single diastereomers; read-out: IC50
# Procedure: To evaluate inhibitory activity, stock solutions (40 times concentrated) of each compound to be tested were prepared in 100% anhydrous DMSO and […] of each inhibitor preparation were aliquoted into each of three wells of a 96-well plate. Calpain I, prepared by a modification of the method of W. J. Lee et al. (Biochem. […] To start the reaction, […] of 50 mM CaCl2 in assay buffer was added to each of the wells of the plate, excepting three, which were used as background signal baseline controls. Substrate hydrolysis was monitored every 5 minutes for a total of 30 minutes using a Fluoroskan II fluorescence plate reader. […] Inhibition of calpain I activity was calculated as the percent decrease in the rate of substrate hydrolysis in the presence of inhibitor relative to the rate in its absence. Comparison between the inhibited and control rates was made within the linear range for substrate hydrolysis. For screening, compounds were tested at […]. […] The results were plotted as percent inhibition versus log inhibitor concentration, and the IC50 was calculated from linear regression of the data.
row,IC50,Structure (SMILES)
1,35 nM,"CCN1C(C(=O)N[C@@H](Cc2ccccc2)C(=O)C(=O)NCCCNS(=O)(=O)c2ccccc2)Cc2cc3c(cc2S1(=O)=O)OCCO3 (stereo partly drawn) [Cpd 14AA, 3-((3,4-Dihydro-6,7-ethylenedioxy-2-ethyl-2H-1,2-benzothiazine-3-carbonyl)amino)-3-(S)-benzyl-2-oxo-N-(3-(benzenesulfonylamino)propyl)propanamide 1,1-dioxide]"
2,29 nM,"CCN1C(C(=O)N[C@@H](Cc2ccccc2)C(=O)C(=O)NCCNS(=O)(=O)c2ccc(F)cc2)Cc2cc3c(cc2S1(=O)=O)OCCO3 (stereo partly drawn) [Cpd 14AC, 3-((3,4-Dihydro-6,7-ethylenedioxy-2-ethyl-2H-1,2-benzothiazine-3-carbonyl)amino)-3-(S)-benzyl-2-oxo-N-(2-(4-fluorobenzenesulfonylamino)ethyl)propanamide 1,1-dioxide]"
3,~200 nM,"CCCCNC(=O)C(=O)[C@H](Cc1ccccc1)NC(=O)C1Cc2cc3c(cc2S(=O)(=O)N1)OCCO3 (stereo partly drawn) [Cpd 14AD, N-Butyl-3-(3,4-Dihydro-6,7-ethylenedioxy-2H-1,2-benzothiazine-3-carboxamido)-2-oxo-3-(S)-benzylpropanamide 1,1-dioxide]"
4,76 nM,"O=C(NCCNS(=O)(=O)c1ccccc1)C(=O)[C@H](Cc1ccccc1)NC(=O)C1Cc2cc3c(cc2S(=O)(=O)N1)OCCO3 (stereo partly drawn) [Cpd 14AE, N-(2-(Benzenesulfonylamino)ethyl)-3-(3,4-Dihydro-6,7-ethylenedioxy-2H-1,2-benzothiazine-3-carboxamido)-2-oxo-3-(S)-benzylpropanamide 1,1-dioxide]"
5,340 nM,CCNC(=O)C(=O)[C@H](Cc1ccccc1)NC(=O)C1Cc2cc3c(cc2S(=O)(=O)N1CC)OCCO3 (stereo partly drawn) [Cpd 14D]
6,89 nM,CCN1C(C(=O)N[C@@H](Cc2ccccc2)C(=O)C(=O)NCCNS(C)(=O)=O)Cc2cc3c(cc2S1(=O)=O)OCCO3 (stereo partly drawn) [Cpd 14S]
7,47 nM,"CCN1C(C(=O)N[C@@H](Cc2ccccc2)C(=O)C(=O)NCCNS(=O)(=O)c2ccc([N+](=O)[O-])cc2)Cc2cc3c(cc2S1(=O)=O)OCCO3 (stereo partly drawn) [Cpd 14T, 3-((3,4-Dihydro-6,7-ethylenedioxy-2-ethyl-2H-1,2-benzothiazine-3-carbonyl)amino)-3-(S)-benzyl-2-oxo-N-(2-(4-nitrobenzenesulfonylamino)ethyl)propanamide 1,1-dioxide]"
8,50 nM,"CCN1C(C(=O)N[C@@H](Cc2ccccc2)C(=O)C(=O)NCCCNS(=O)(=O)c2ccc([N+](=O)[O-])cc2)Cc2cc3c(cc2S1(=O)=O)OCCO3 (stereo partly drawn) [Cpd 14U, 3-((3,4-Dihydro-6,7-ethylenedioxy-2-ethyl-2H-1,2-benzothiazine-3-carbonyl)amino)-3-(S)-benzyl-2-oxo-N-(3-(4-nitrobenzenesulfonylamino)propyl)propanamide 1,1-dioxide]"
9,56 nM,"CCN1C(C(=O)N[C@@H](Cc2ccccc2)C(=O)C(=O)NCCNS(=O)(=O)c2ccc(Cl)c(Cl)c2)Cc2cc3c(cc2S1(=O)=O)OCCO3 (stereo partly drawn) [Cpd 14V, 3-((3,4-Dihydro-6,7-ethylenedioxy-2-ethyl-2H-1,2-benzothiazine-3-carbonyl)amino)-3-(S)-benzyl-2-oxo-N-(2-(3,4-dichlorobenzenesulfonylamino)ethyl)propanamide 1,1-dioxide]"
10,56 nM,"CCN1C(C(=O)N[C@@H](Cc2ccccc2)C(=O)C(=O)NCCCNS(=O)(=O)c2ccc(Cl)c(Cl)c2)Cc2cc3c(cc2S1(=O)=O)OCCO3 (stereo partly drawn) [Cpd 14W, 3-((3,4-Dihydro-6,7-ethylenedioxy-2-ethyl-2H-1,2-benzothiazine-3-carbonyl)amino)-3-(S)-benzyl-2-oxo-N-(3-(3,4-dichlorobenzenesulfonylamino)propyl)propanamide 1,1-dioxide]"
11,40 nM,"CCN1C(C(=O)N[C@@H](Cc2ccccc2)C(=O)C(=O)NCCNS(=O)(=O)c2ccccc2)Cc2cc3c(cc2S1(=O)=O)OCCO3 (stereo partly drawn) [Cpd 14X, 3-((3,4-Dihydro-6,7-ethylenedioxy-2-ethyl-2H-1,2-benzothiazine-3-carbonyl)amino)-3-(S)-benzyl-2-oxo-N-(2-(benzenesulfonylamino)ethyl)propanamide 1,1-dioxide]"
12,20 nM,CCN1C(C(=O)N[C@@H](Cc2ccccc2)C(=O)C(=O)NCCNS(=O)(=O)c2ccc(-c3ccccn3)s2)Cc2cc3c(cc2S1(=O)=O)OCCO3 (stereo partly drawn) [Cpd 14Y]
13,50 nM,"CCN1C(C(=O)N[C@@H](Cc2ccccc2)C(=O)C(=O)NCCCNS(=O)(=O)c2ccc(F)cc2)Cc2cc3c(cc2S1(=O)=O)OCCO3 (stereo partly drawn) [Cpd 14Z, 3-((3,4-Dihydro-6,7-ethylenedioxy-2-ethyl-2H-1,2-benzothiazine-3-carbonyl)amino)-3-(S)-benzyl-2-oxo-N-(3-(4-fluorobenzenesulfonylamino)propyl)propanamide 1,1-dioxide]"

# Same assay, conditions: Table IV; calpain I, 0.2 mM Succ-Leu-Tyr-MNA, pH 7.5; read-out: IC50
row,IC50,Structure (SMILES)
1,6 nM,"CN1C(C(=O)N[C@H](C=O)Cc2ccccc2)=Cc2cc3c(cc2S1(=O)=O)OCCO3 [Cpd 26b, N-(6,7-Ethylenedioxy-2-methyl-2H-1,2-benzothiazine-3-carbonyl)-L-phenylalaninal 1,1-dioxide]"
2,37 nM,"COC1=C(C(=O)N[C@H](C=O)Cc2ccccc2)N(C)S(=O)(=O)c2ccccc21 [Cpd 26d, N-(2-Methyl-4-methoxy-2H-1,2-benzothiazine-3-carbonyl)-L-phenylalaninal 1,1-dioxide]"
3,210 nM,"CCCCNC(=O)C(=O)[C@H](Cc1ccccc1)NC(=O)C1=Cc2cc3c(cc2S(=O)(=O)N1C)OCCO3 [Cpd 27e, 3-((6,7-Ethylenedioxy-2-methyl-2H-1,2-benzothiazine-3-carbonyl)amino)-3-(S)-benzyl-2-oxo-N-butylpropanamide 1,1-dioxide]"
4,155 nM,CCCCNC(=O)C(=O)[C@H](Cc1ccccc1)NC(=O)C1=Cc2cc3c(cc2S(=O)(=O)N1CC)OCCO3 [Cpd 27f]
5,900 nM,"CCCCNC(=O)C(=O)[C@H](Cc1ccccc1)NC(=O)C1=C(OC)c2ccccc2S(=O)(=O)N1C [Cpd 27g, 3-((4-Methoxy-2-methyl-2H-1,2-benzothiazine-3-carbonyl)amino)-3-(S)-benzyl-2-oxo-N-butylpropanamide 1,1-dioxide]"
6,~10000 nM,"CCCCNC(=O)C(=O)[C@H](Cc1ccccc1)NC(=O)C1=C(O)c2ccccc2S(=O)(=O)N1C [Cpd 27h, 3-((4-Hydroxy-2-methyl-2H-1,2-benzothiazine-3-carbonyl)amino)-3-(S)-benzyl-2-oxo-N-butylpropanamide 1,1-dioxide]"

# Same assay, conditions: Table V; calpain I, 0.2 mM Succ-Leu-Tyr-MNA, pH 7.5; * mixture of diastereomers, a,b single diastereomers; read-out: IC50
row,IC50,Structure (SMILES)
1,~2000 nM,"CCCCNC(=O)C(=O)[C@H](Cc1ccccc1)NC(=O)C1Nc2ccccc2S(=O)(=O)N1C (stereo partly drawn) [Cpd 35e, 3-((3,4-Dihydro-4H-2-methyl-2H-1,2,4-benzothiadiazine-3-carbonyl)amino)-3-(S)-benzyl-2-oxo-N-butylpropanamide 1,1-dioxide]"

# Same assay, conditions: Table VI; calpain I, 0.2 mM Succ-Leu-Tyr-MNA, pH 7.5; read-out: IC50
row,IC50,Structure (SMILES)
1,83 nM,"O=C[C@H](Cc1ccccc1)NC(=O)C1=Nc2ccccc2S(=O)(=O)N1 [Cpd 42a, N-(2H-1,2,4-Benzothiadiazine-3-carbonyl)-L-phenylalaninal 1,1-dioxide]"
2,28 nM,"O=C[C@H](Cc1ccccc1)NC(=O)C1=Nc2cc3c(cc2S(=O)(=O)N1)OCCO3 [Cpd 42b, N-(2H-6,7-Ethylenedioxy-1,2,4-benzothiadiazine-3-carbonyl)-L-phenylalaninal1,1-dioxide]"
3,~5000 nM,"CCCCNC(=O)C(=O)[C@H](Cc1ccccc1)NC(=O)C1=Nc2ccccc2S(=O)(=O)N1 [Cpd 42c, 3-((2H-1,2,4-Benzothiadiazine-3-carbonyl)amino)-3-(S)-benzyl-2-oxo-N-butylpropanamide 1,1-dioxide]"
4,~10000 nM,"CCCCNC(=O)C(=O)[C@H](Cc1ccccc1)NC(=O)C1=Nc2cc3c(cc2S(=O)(=O)N1)OCCO3 [Cpd 42d, 3-((2H-6,7-Ethylenedioxy-1,2,4-benzothiadiazine-3-carbonyl)amino)-3-(S)-benzyl-2-oxo-N-butylpropanamide 1,1-dioxide]"

# Reference: patent publication US5952328A, “Benzothiazo and related heterocyclic group-containing cysteine and serine protease inhibitors” (Cephalon, Inc., priority 1997, dated 1999)
